In US10766890B2, “Hepatitis B core protein modulators” (Assembly Biosciences, Inc., priority 2015, dated 2020):

Legend:
[1] = test system: AD38 cells; test: Viability of AD38 cells, Promega CellTiter-Glo; type: cell-based; conditions: 10 μM compound, 6 days, CellTiter-Glo luminescence, controls being 100%
Experimental: (§1) Example 63: Assay Measuring Activity of Compounds on Viral Production in and on Viability of AD38 Cells
(§2) AD38 cells were then re-suspended with 10 mL of Treatment Medium and counted. Wells of a collagen coated 96-well NUNC microtiter plate were seeded at 50,000/well in 180 μL of Treatment Medium, and 20 μL of in treatment media with either 10% DMSO (Control) or a 10× solution of compound in 10% DMSO was added. Plates were incubated for 6 days at 37° C.
At the end of compound treatment period cell viability was assessed using a Promega CellTiter-Glo protocol. All supernatant was removed the previously treated 96-well microtiter plate, and 50 μL Tetracycline-free treatment medium (DMEM/F12 (1:1), 1×Pen/step (cat#: 30-002-CL, Mediatech, Inc), with 2% FBS, Tet-system approved (cat#: 631106, Clontech), and 1% DMSO was added back to each well. Another 50 μL of CellTiter-Glo reagent solution (Promega, G7573) was then added at room temperature and the contents mixed for 2 minutes on an orbital shaker to induce cell lysis. This was followed by incubation at room temperature for 10 minutes to stabilize the luminescent signal. The luminescence was recorded for 0.2 seconds per well on a Tecan multimode platereader (Infinite M1000 pro). The luminescent signal from each well was normalized against that of untreated (DMSO) control wells. All results in Table 3 were reported with percent viability (with controls being 100%).

[2] = test system: HBV; test: Viral load production in AD38 cells, quantitative PCR of the core sequence in supernatant; type: cell-based; conditions: 10 μM compound, 6 days at 37° C., supernatant qPCR vs DMSO control; for activity at 10 µM: Hepatitis B virus, 144 h, read-out: AD38 Viral Load (%) (VL with cmpd/VL in DMSO control) at 10 μM
Experimental: as §1, §2
Viral load production was assayed by quantitative PCR of the core sequence. […] The PCR mixture was incubated at 45° C. for 5 minutes, then 95° C. for 10 min, followed by 40 cycles of 10 seconds at 95° C. and 20 seconds at 60° C. Viral load was quantitated against known standards by using ViiA™ 7 Software. Viral load in the supernatant from wells with treated cells were compared against viral load in supernatant from DMSO control wells (≥3 per plate).

Row | Compound | AD38 Viability Normalized Result (cmpd/DMSO %) at 10 μM [1] | AD38 Viral Load (%) (VL with cmpd/VL in DMSO control) at 10 μM [2] | activity at 10 µM [2]
1 | 11-oxo-N-(4-(4-((2,2,2-trifluoroacetyl)-λ^4-azanyl)butoxy) phenethyl)-10,11-dihydrodibenzo[b, f][1,4]thiazepine-8-carboxamide 5,5-dioxide [Compound 482] | 101% | 16.3% | 
2 | O=C(NCCOc1ccc(F)cc1)c1ccc2c(c1)NC(=O)c1ccccc1S2(=O)=O [Compound 469] | 100% |  | 4.1%
3 | O=C(NCC(c1ccccc1)N1CCCC1)c1ccc2c(c1)NC(=O)c1ccccc1S2(=O)=O (stereo not drawn) [Compound 471] | 103% |  | 72.6%
4 | O=C(NCCC(c1ccccc1)N1CCCC1)c1ccc2c(c1)NC(=O)c1ccccc1S2(=O)=O (stereo not drawn) [Compound 472] | 105% |  | 32.6%
5 | O=C(NCCc1ccc(-c2cnn[nH]2)cc1)c1ccc2c(c1)NC(=O)c1ccccc1S2(=O)=O [Compound 475, N-(4-(1H-1,2,3-triazol-5-yl)phenethyl)-11-oxo-10,11-dihydrodibenzo[b,f][1,4]thiazepine-8-carboxamide 5,5-dioxide] | 96% |  | 0.7%
6 | O=C(NCCCCOc1ccc(CCNC(=O)c2ccc3c(c2)NC(=O)c2ccccc2S3(=O)=O)cc1)OCc1ccccc1 [Compound 481] | 91% |  | 0.5%
7 | CN1c2ccc(C(=O)NCCc3ccc(S(=O)(=O)N(C)C)cc3)cc2NC(=O)c2ccccc21 [Compound 498] | 76% |  | 13.8%
8 | CCN1c2ccc(C(=O)NCCc3ccc(S(=O)(=O)N(C)C)cc3)cc2NC(=O)c2ccccc21 [Compound 501] | 91% |  | 5.5%
9 | O=C(NCCc1ccc(-c2ccccc2)cc1)c1ccc2c(c1)NC(=O)c1ccccc1N2 [Compound 508] | 103% |  | 59.1%
10 | CN(C)S(=O)(=O)c1ccc(CCNC(=O)c2ccc3c(c2)NC(=O)c2ccccc2N3)cc1 [Compound 510] | 92% |  | 21.4%
11 | CCC(CNC(=O)c1ccc2c(c1)NC(=O)c1ccccc1S2(=O)=O)c1ccccc1 (stereo not drawn) [Compound 530] | 92% |  | 5%
12 | O=C(NCCc1ccc(-c2ccc(F)cc2)cc1)c1ccc2c(c1)NC(=O)c1ccccc1S2(=O)=O [Compound 533] | 3% |  | 0.6%
13 | O=C(NCc1ccc(-c2cncnc2)cc1)c1ccc2c(c1)NC(=O)c1ccccc1S2 [Compound 537] | 100% |  | 51.5%
14 | O=C(NCCc1ccc(-c2ccc(F)cc2)cc1)c1ccc2c(c1)NC(=O)c1ccccc1S2 [Compound 538] | 62% |  | 8.1%
15 | O=C(NCc1ccc(-c2ccccc2)cc1)c1ccc2c(c1)NC(=O)c1ccccc1S2(=O)=O [Compound 563] | 59% |  | 0.9%
16 | O=C(NCc1ccc(-c2ccc(F)cc2)cc1)c1ccc2c(c1)NC(=O)c1ccccc1S2(=O)=O [Compound 564] | 29% |  | 0.9%
17 | O=C(NCc1cccc(-c2ccccc2)c1)c1ccc2c(c1)NC(=O)c1ccccc1S2(=O)=O [Compound 565] | 105% |  | 1.5%
18 | O=C(NCc1cccc(-c2ccc(F)cc2)c1)c1ccc2c(c1)NC(=O)c1ccccc1S2(=O)=O [Compound 566] | 95% |  | 0.6%

Row | Compound | AD38 Viability Normalized Result (cmpd/DMSO %) at 10 μM [1] | AD38 Viral Load (%) (VL with cmpd/VL in DMSO control) at 10 μM [2] | activity at 10 µM [2]
19 | O=C(NCc1ccc(-n2nccn2)cc1)c1ccc2c(c1)NC(=O)c1ccccc1S2(=O)=O [Compound 567] | 104% |  | 3.3%
20 | O=C(NCc1cccc(-n2nccn2)c1)c1ccc2c(c1)NC(=O)c1ccccc1S2(=O)=O [Compound 568] | 101% |  | 3%
21 | O=C(NCc1ccc(-c2cn(Cc3ccccc3)nn2)cc1)c1ccc2c(c1)NC(=O)c1ccccc1S2(=O)=O [Compound 569-A] | 97% |  | 1.5%
22 | O=C(NCc1ccc(-c2c[nH]nn2)cc1)c1ccc2c(c1)NC(=O)c1ccccc1S2(=O)=O [Compound 569] | 100% |  | 2.8%
23 | O=C(NCc1cccc(-c2cnn[nH]2)c1)c1ccc2c(c1)NC(=O)c1ccccc1S2(=O)=O [Compound 570] | 112% |  | 8.7%
24 | O=C(NCc1ccc(-c2ccc(O)cc2)cc1)c1ccc2c(c1)NC(=O)c1ccccc1S2(=O)=O [Compound 638] | 7% |  | 8.6%
25 | O=C(NCc1ccc(-c2cccc(O)c2)cc1)c1ccc2c(c1)NC(=O)c1ccccc1S2(=O)=O [Compound 639] | 34% |  | 4.5%
26 | C[C@H](NC(=O)c1ccc2c(c1)NC(=O)c1ccccc1S2(=O)=O)c1ccc(-c2ccc(O)cc2)cc1 [Compound 640] | 1% |  | 4.4%
27 | C[C@@H](NC(=O)c1ccc2c(c1)NC(=O)c1ccccc1S2(=O)=O)c1ccc(-c2ccc(O)cc2)cc1 [Compound 643] | 104% |  | 30%
28 | O=C(NCc1ccc(-c2ccc3[nH]cnc3c2)cc1)c1ccc2c(c1)NC(=O)c1ccccc1S2(=O)=O [Compound 644] | 89% |  | 31.2%
29 | CN(C)c1ccc(-c2ccc(CNC(=O)c3ccc4c(c3)NC(=O)c3ccccc3S4(=O)=O)cc2)cc1 [Compound 646] | 92% |  | 6%
30 | O=C(NCc1ccc(-c2ccc3[nH]ccc3c2)cc1)c1ccc2c(c1)NC(=O)c1ccccc1S2(=O)=O [Compound 647] | 102% |  | 0.4%
31 | Cl.NCc1ccc(-c2ccc(CNC(=O)c3ccc4c(c3)NC(=O)c3ccccc3S4(=O)=O)cc2)cc1 [Compound 652, N-((4′-(aminomethyl)-[1,1′-biphenyl]-4-yl)methyl)-11-oxo-10,11-dihydrodibenzo[b,f][1,4]thiazepine-8-carboxamide 5,5-dioxide hydrochloride] | 86% |  | 36.4%
32 | N#Cc1ccc(-c2ccc(CNC(=O)c3ccc4c(c3)NC(=O)c3ccccc3S4(=O)=O)cc2)cc1 [Compound 652-A, N-((4′-cyano-[1,1′-biphenyl]-4-yl)methyl)-11-oxo-10,11-dihydrodibenzo[b,f][1,4]thiazepine-8-carboxamide 5,5-dioxide] | 36% |  | 4.6%
33 | CN(C)CCOc1ccc(-c2ccc(CNC(=O)c3ccc4c(c3)NC(=O)c3ccccc3S4(=O)=O)cc2)cc1 [Compound 657] | 104% |  | 19.4%
34 | CN(Cc1ccc(-c2ccc(O)cc2)cc1)C(=O)c1ccc2c(c1)NC(=O)c1ccccc1S2(=O)=O [Compound 662] | 34% |  | 20.8%
35 | N#Cc1cccc(-c2ccc(CNC(=O)c3ccc4c(c3)NC(=O)c3ccccc3S4(=O)=O)cc2)c1 [Compound 676-A] | 98% |  | 5.9%
36 | O=C(NCc1ccc(-c2ccc3[nH]ncc3c2)cc1)c1ccc2c(c1)NC(=O)c1ccccc1S2(=O)=O [Compound 678] | 76% |  | 1.4%
